Our source for the Ki values is patent US20120052130A1, “GPR 119 MODULATORS” (Pfizer Inc., priority 2009, published 2012).

This experiment addresses T1, human GPR119 (Homo sapiens, UniProt Q8TDV5).
T1 sequence (Q8TDV5 1-335): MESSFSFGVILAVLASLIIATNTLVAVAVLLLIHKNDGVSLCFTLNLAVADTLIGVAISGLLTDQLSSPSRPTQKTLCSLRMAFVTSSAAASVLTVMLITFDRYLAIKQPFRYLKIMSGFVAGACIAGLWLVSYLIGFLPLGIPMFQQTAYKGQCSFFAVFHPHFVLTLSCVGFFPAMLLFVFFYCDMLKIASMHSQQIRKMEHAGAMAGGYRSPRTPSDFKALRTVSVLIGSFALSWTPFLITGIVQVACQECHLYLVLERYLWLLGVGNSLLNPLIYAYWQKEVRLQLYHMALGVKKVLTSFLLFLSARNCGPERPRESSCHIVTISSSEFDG
The experiment can be described thus: GPR 119 radioligand binding assay ([3H]-Compound A or [3H]-Compound B, membranes of HEK 293FT cells over-expressing hGPR119). As to conditions: calculated from IC50 by Cheng-Prusoff; each line is a separate determination. As for the experimental part: HEK 293FT cells (Invitrogen, Carlsbad, Calif.) were grown in a shake flask in 293Freestyle medium (Invitrogen) supplemented with 50 microg/mL neomycin and 10 mM HEPES (37 C, 8% carbon dioxide, shaking). The cells were centrifuged gently (approximately 500×g, 10 minutes) and the pellet resuspended in a mixture of Dulbecco's PBS(minus Mg++/−Ca++) supplemented with 18% fetal bovine serum (Sigma Aldrich) and P1 virus such that the multiplicity of infection (MOI) was 10 and the final cell density was 1.3×10^6/mL (total volume 2.5 liters). The cells were transferred to a 5 liter Wave Bioreactor Wavebag (Wave Technologies, MA) and incubated for 4 hours at 27 degrees Celsius (17 rocks/min, 7 degrees platform angle); at the end of the incubation period, an equal volume(2.5 liters) of 293Freestyle medium supplemented with 30 mM sodium butyrate (Sigma Aldrich) was added (final concentration=15 mM), and the cells were grown for 20 hours (37 degrees Celsius, 8% CO2 [0.2 liters/min}, 25 rocks/minute, 7 degrees platform angle). […]
The frozen cells were thawed on ice and centrifuged at 700×g (1400 rpm) for 10 minutes at 4 degrees Celsius. […] The protein concentration was determined using the Pierce BCA protein assay kit (Pierce reagents A #23223 and B #23224). […]

For orientation: Ki means a dissociation constant, usually derived from enzyme kinetics or from competition with a known ligand. With `Cc1c(O[C@@H]2[C@@H]3COC[C@H]2CN(C(=O)OC2(C)CC2)C3)ncnc1N1CCc2ncccc21` [Example 28, 1-Methylcyclopropyl (9-syn)-9-{[6-(2,3-dihydro-1H-pyrrolo[3,2-b]pyridin-1-yl)-5-methylpyrimidin-4-yl]oxy}-3-oxa-7-azabicyclo[3.3.1]nonane-7-carboxylate], the Ki was 45.8 nM.
With `Cc1c(O[C@@H]2[C@@H]3COC[C@H]2CN(C(=O)OC(C)C)C3)ncnc1N1CCc2cc(S(C)(=O)=O)ccc21` [Example 23, Isopropyl (9-syn)-9-({5-methyl-6-[5-(methylsulfonyl)-2,3-dihydro-1H-indol-1-yl]pyrimidin-4-yl}oxy)-3-oxa-7-azabicyclo[3.3.1]nonane-7-carboxylate], the Ki is 130 nM.
